A short description of assay [1]: CX4/LCG supramolecular tandem membrane assay, EYPC vesicles. Particulars: 25 µM lipid, EYPC⊃CX4/LCG-LUVs, 10 mM Hepes, pH 7.5, 25 °C; fractional activity at 590 s, Hill fit; error = SD of fit, n = 1. Type of assay: in vitro ADME. Here is the method:
Membrane Activity M easurements
Vesicle preparation. 100 µ L of a solution of 25 mg/ml of POPC in chloroform or 200 µ L of a solution of 25 mg/ml of EYPC in chloroform was purged with nitrogen and dried overnight under hi gh vacuum. The thin lipid film was rehydrated with 1 ml reh ydrati on buffer (= inside buffer, see Tabl e S2 ) b y agitation at room temperature for 30min and then subjected to 2 0 freeze- th aw c ycles (freezing in liquid nitro gen and thawing at 40 °C). […]
Ta b l e S 2. Combinations of lipids and inside and outside buffer for CX4/LCG -LUVs.
No. Lipid Inside buffer = rehydration buffer Outside buffer […]
Vesicle quality control. T o ensure the absence of the CX4/ LCG reporter pair in the ex travesicular ph ase, 20 µL of the collected liposome fr action w as diluted to 2 ml with outside buffer and the fluor escen ce (λ exc = 369 nm; λ em = 502 nm) was recorded during the addition of […]
A co nstant fluorescenc e intensity durin g the addition of the stron gl y bindin g sp ermine verified the complete removal o f unencapsulated materi al. The size distribution of the liposomes was confirmed b y DLS to be unimodal and in the range of 120 to 150 nm diameter. […] Subsequently, the time-dependent change in fluorescence intensity (λ exc = 369 nm; λ em = 502 nm) was record ed during addition of 20 µ L of peptide stock solutions of varying concentrations at 60 s. […]

A short description of assay [2]: CX4/LCG tandem membrane assay with subsequent addition of spermine (transient vs stable pores). Type of assay: in vitro ADME. Particulars: TP10 0.2 µM or melittin 5 nM at 60 s, spermine 20 µM at 340 s, 10 mM Hepes, 175 mM glucose, pH 7.5. How it is done: This means that TP10 renders the vesicle membranes only transiently permeable, while after some time, the pores “close”, most likely due to equilibration of the inside and outside concentrations of TP10. At sufficiently low TP10 concentrations, the vesicles have consequently released only some of their content after a certain incubation time and no further release of encapsulated compounds is observed thereafter. The transient nature of the TP10 pores was also confirmed herein by the CX4/LCG tandem membrane assay (Figure 4, black line). […] At this point of time, the TP10 pores should be either closed, or there should be some remaining stable equilibrium pores, which are too small to allow efflux of relatively large CX4 and/or LCG (MW > 500 Da), but sufficiently large to allow CF efflux (MW = 376 Da). Closed pores would refer to the previously reported graded mechanism, whereas the latter would point toward an all‐or‐none release mechanism.^[ [12], [70] ^] […] The newly developed assay has therefore the added capacity to afford more fine‐grained mechanistic information on membrane activity.
The blue trace is a control to illustrate full dissociation of the CX4/LCG complex during vesicle lysis by TX‐100.
LysisLysis vesicle lysisvesicle lysis […]
calibration cocktail at 600 s. a) Original changes in fluorescence intensity of LCG ( λex = 369 nm, λem = […]

SMILES strings stand for the structures. Where a SMILES comes first, the peptide text is derived from it.

A word on the EC50: it is the midpoint of the concentration-response curve.

For the molecule `CC[C@H](C)[C@H](NC(=O)[C@H](CCCCN)NC(=O)[C@@H](NC(=O)[C@@H](N)CCC(N)=O)[C@@H](C)CC)C(=O)N[C@@H](Cc1c[nH]c2ccccc12)C(=O)N[C@@H](Cc1ccccc1)C(=O)N[C@@H](CCC(N)=O)C(=O)N[C@@H](CC(N)=O)C(=O)N[C@@H](CCCNC(=N)N)C(=O)N[C@@H](CCCNC(=N)N)C(=O)N[C@@H](CCSC)C(=O)N[C@@H](CCCCN)C(=O)N[C@@H](Cc1c[nH]c2ccccc12)C(=O)N[C@@H](CCCCN)C(=O)N[C@@H](CCCCN)C(=O)O` (H-QIKIWFQNRRMKWKK-OH), the EC50 in assay [1] came to 14 ± 3 µM.
As to `CC[C@H](C)[C@H](NC(=O)[C@H](CCCCN)NC(=O)[C@H](CCCCN)NC(=O)[C@H](C)NC(=O)[C@H](CC(C)C)NC(=O)[C@H](C)NC(=O)[C@H](C)NC(=O)[C@H](CC(C)C)NC(=O)[C@H](C)NC(=O)[C@H](CCCCN)NC(=O)[C@H](CC(C)C)NC(=O)[C@H](CC(N)=O)NC(=O)[C@@H](NC(=O)[C@H](CCCCN)NC(=O)CNC(=O)[C@H](CC(C)C)NC(=O)[C@H](CC(C)C)NC(=O)[C@H](Cc1ccc(O)cc1)NC(=O)CNC(=O)[C@H](C)N)[C@@H](C)CC)C(=O)N[C@@H](CC(C)C)C(=O)O` [TP10], the “kind of pores (fluorescence response to spermine added after the peptide)” value in assay [2] was “absence of stable TP10 pores”.
